Measured values published in US5591740A, “Use of debromohymenialdisine for treating osteoarthritis” (OsteoArthritis Sciences, Incorporated, priority 1995, dated 1997).
pIC50: −log10 of the molar value.

Tests used:
[1] = system: chondrocytes, interleukin-1 induced proteoglycan degradation; assay: Chondrocyte cell culture matrix breakdown assay (IL-1 induced 35S proteoglycan release); assay type: cell-based, calf; conditions: for pIC50: Bos taurus, chondrocyte matrix breakdown assay, 1 ng/ml rhIL-1α, 22-24 hours, read-out: IC50, inhibition of proteoglycan degradation; for dose response curve (FIG. 1): percent inhibition over a range of concentrations
Experimental: A cell culture assay was used to-measure the ability of the test compounds to slow the degradation of the extracellular matrix by a metalloproteinase. This assay measured the amount ^35 S released from chondrocytes grown in a media with ^35 S labeled sodium sulfate. The cell culture assay was carried out as follows:
Two or three 1 to 3 week old calf joints were obtained from an abattoir. The proximal end of the shank was about 4-5" long to facilitate immobilization in the holder. The joint was kept cool and transported on ice. The exterior of the intact joints was washed well with a suitable anti-microbial soap, rinsed clean with warm water, rinsed in betadine and then finally rinsed with 70% ethanol. Up to this point all steps were done in a manner to ensure that the joint was kept as clean as possible. All subsequent steps were performed in a sterile field (i.e., in a Edgeguard laminar flow tissue culture hood). The joint was immobilized and the synovial fluid was aspirated with a needle and syringe. The joint was then cut open to expose the articular cartilage using a #21 scalpel. Using locking hemostats, forceps and a #15 scalpel, the cartilage was excised in full thickness pieces. Care was taken not to cut too deep into the subchondral bone to prevent bleeding. The cartilage pieces were placed into a 50 mL centrifuge tube containing 25 mL of Delbecco's phosphate buffered saline (D-PBS) supplemented with 1% antibiotic solution (penicillin, streptomycin and fungizone; GIBCO/BRL). The slices from each joint were then placed into separate 50 mL centrifuge tubes. The D-PBS was decanted and replaced with 25 mL of fresh D-PBS supplemented with antibiotics and subsequently agitated gently.
The cartilage pieces were transferred to a fresh 50 mL centrifuge tube and rinsed once more with 25 mL of D-PBS minus antibiotics. An enzymatic digestion solution containing 1 mg/mL of hyaluronidase in serum-free 1:1 DMEM/Ham's F-12 (DMEM/F12) was prepared. This solution was filter sterilized with […] Milex--GV filter and kept on ice until ready to use. The cartilage pieces were digested with approximately 5 mL of hyaluronidase solution per joint for 2×15 minutes at 37° C. in the 50 mL centrifuge tube with gentle agitation at the 15 minute mark. This procedure removed residual hyaluronic acid from the surface of the chips. The enzymatic digestion solution was then aspirated and the cartilage pieces were rinsed with 25 mL of D-PBS.
A second enzymatic digestion solution containing 2.5 mg trypsin and 2 mg collagenase P per mL serum-free DMEM/F12 was prepared. This solution was also filter sterilized with a […] Millex--GV filter and kept on ice until ready to use. The cartilage pieces were digested with approximately 5 mL of trypsin: collagenase solution per joint for 2×15 minutes at 37° C. in the 50 mL centrifuge tube with gentle agitation at the 15 minute mark. This procedure removed the synovial fibroblasts and any adherent connective tissue from the surface of the chips. The enzymatic digestion solution was then carefully removed and saved and the cartilage pieces were rinsed with 25 mL of D-PBS.
A third enzymatic solution containing 2 mgs of collagenase P (BMB) per mL serum-free DMEM/F12 was prepared. This solution was filter sterilized with a […] Millex--GV filter and kept on ice until ready to use. The pre-digested cartilage pieces were finally digested with approximately 20 mL of enzymatic digestion solution per joint for 5-6 hours at 37° C. in a Bellco stirring digestion flask, at which point the cartilage was fully digested away.
The enzymes in the synovial fibroblast and chondrocyte digest were neutralized by addition of an equal volume of DMEM/F12 supplemented with 5% fetal bovine serum. Fibroblasts were plated in DMEM at a cellular density of 6.6×10^3 cells per cm^2. […]

[2] = system: bovine cartilage explants, interleukin-1 stimulated proteoglycan degradation; assay: Bovine articular cartilage explant assay (IL-1 induced 35S-GAG release); assay type: cell-based, bovine (1 to 3 week old calf); conditions: for pIC50: Bos taurus, bovine cartilage explants, rhIL-1α 5 ng/mL, 3-4 days, read-out: IC50, inhibition of interleukin-1 stimulated proteoglycan degradation; for dose response curve (FIG. 2): percent inhibition over a range of concentrations
Excerpt: A tissue culture assay was used to measure the ability of the compounds of the present invention to slow the degradation of the extracellular matrix by metalloproteinases. This assay measured the amount of ^35 S-glycosaminoglycan (^35 S-GAG) released from labeled bovine cartilage explants.
Knee joints from a 1 to 3 week old calf were obtained immediately after sacrifice from the Abattoir and then transported on ice. The intact joints were washed well with tap water and soaked in 50% (v/v) Povidine iodine solution, obtained from Burre National, Inc., Baltimore, Md. All subsequent steps were performed in a laminar flow tissue culture hood using standard sterile technique. The joint was immobilized in a shank holder and the joint capsule was cut open to expose the articular cartilage. Cartilage explant plugs, approximately 15 mg wet weight, were removed from the flat articulating surfaces in the lower-most region of the knee joint using a sterile steel cork-borer and collected in a 250 mL roller bottle containing about 100 mL fresh Delbecco's minimum essential medium (DMEM), obtained from Gibco BRC, Life Technologies, Gaithersburg, Md., containing 4.5 g/l (D)-glucose and (L)-glutamine, without sodium pyruvate. The fresh media also contained enough Hepes buffer and sodium bicarbonate such that the pH was about 7.4. The media was then further supplemented just before use with 100 units Penicillin, 100 μg Streptomycin, and 50 μg (L)-ascorbic acid per mL of medium.
Once collected, the explant plugs were washed four times with 50 mL fresh DMEM. The plugs were then placed in the incubator for a minimum of 1 hour to equilibrate, before proceeding to make disks from the articulating surface of each plug. A 1 mm thick disk was sliced from individual plugs from the end that was the articulating surface of the joint. The plug was held steady in the sterile template (4 mm diameter ×1.5 mm deep) using sterile forceps. A scalpel blade was used to carefully slice off the disk. Only the superficial articulating surface responded well in culture.
Individual disks obtained were transferred to a tissue culture flask containing about 100 mL fresh media. The flask containing the disks was placed in an incubator at 37° C. (with 5% CO2, 95% air) and allowed to equilibrate overnight and at least one additional day before labeling. When ready to label, the old media was replaced with 50 mL fresh media containing about 500 μCi ^35 S-Sodium Sulfate. The plugs were labeled in bulk for about 48 hours. […]
The TC plates were then placed in the incubator and cultured for 3-4 days (initial incubation with rhIL-1α alpha takes at least 3 days to stimulate endogenous metalloproteinases). A 50 μL aliquot of media from each TC plate was saved and counted. […]

[3] = system: osteoarthritis in Hartley guinea pigs following surgical induction of joint instability; assay: Slowing the development of osteoarthritis in the Hartley guinea pig model (surgically induced joint instability, Mankin scoring); assay type: in vivo, male Hartley guinea pigs; parameters: Structure (Mankin criteria), mean / Cells (Mankin criteria), mean / Safranin O (Mankin criteria), mean / mean Mankin score: scale not given here; conditions: for Cells (Mankin criteria), mean: untreated 1.6; for Safranin O (Mankin criteria), mean: untreated 2.3; for Structure (Mankin criteria), mean: untreated 4.6; for mean Mankin score: untreated 10.3, placebo 10.0
Experimental: Thirty five male Hartley guinea pigs 40 days old, were purchased from Charles River Laboratories. Each group consisted of 5 animals that were euthanized at 1, 2, 3, 4, 5, 6 and 8 months post-surgery. Ketamine 40 mg/kg, Xylazine 5 mg/kg and Fentanyl 0.1 mg/kg sc were used for anesthesia. Naloxone hydrochloride was given at 0.1 mg/kg following surgery. For radiography, animals were sedated with Xylazine 10 mg/kg sc and superficially anesthetized with Ketamine 20 mg/kg sc.
Surgery was performed under direct visualization using a dissecting microscope at 7.5 fold magnification. A medial longitudinal parapatellar incision was followed by division of the capsule and synovial layers. A partial medical menisectomy was followed by transection of the anterior cruciate ligament. Confirmation of the ligament transection was obtained by a positive anterior drawer sign. The capsule was continuously sutured with 5-0 VICRYL™ and the skin was closed with staples.
After the animals were sacrificed, joints were prepared for histological examination by standard techniques. Joints were fixed for 14 days in 10% formalin. Knees were then decalcified in 20% Formic acid in PBS, pH 7.2 for 24 hours. Sections cut at 5μ were stained with Safranin O, Fast Green and Hematoxylin. Radiographic evaluation was performed with antero-posterior and lateral views. A dental X-Ray unit and DF-50 film were used. Histopathological scoring was performed by two blinded, independent observers using the Mankin criteria (Mankin, H. J., "Biochemical and Metabolic Aspects of Osteoarthritis," Orthopedic Clinics of North America, 2:19-30 (1971). This evaluation system grades the structural defects, cellular changes, loss of proteoglycan as reflected by Safranin 0, and disruption of an antatomic landmark reflecting the transition to calcified cartilage. The Mankin scoring criteria are listed below:
Surgery was performed on twenty-four male Hartley guinea pigs during which the joint instability was induced according to the procedure described in Example 4.
The animals were divided into four groups of six. Beginning two weeks following surgery, each animal in the first two groups was given weekly intraarticular injections into the surgically treated joints of 0.3 mg (6 mg/ml) or 1.5 mg of Z-debromohymenialdisine (30 mg/ml) in a vehicle containing carboxymethylcellulose (2 mg/ml saline) and polysorbate 80 (0.5 mg/ml saline). Total volume of the injection was 50 μl. Group III animals were given weekly intraarticular injections of a placebo, while Group IV animals were left untreated. The treatments were continued for seven weeks.
At the termination of the system, the animals were euthanized and […] evaluation of the knees was performed as described in Example 5 using the Mankin criteria. The results of the histological evaluation at seven weeks post surgery are depicted in FIG. 4.

[4] = 0.3 or 1.5 mg/week intraarticular

Compound	pIC50 [1]	dose response curve (FIG. 1) [1]	pIC50 [2]	dose response curve (FIG. 2) [2]	Cells (Mankin criteria), mean ([3]; 0.3 mg weekly intraarticular)	Safranin O (Mankin criteria), mean ([3]; 0.3 mg weekly intraarticular)	Structure (Mankin criteria), mean ([3]; 0.3 mg weekly intraarticular)	mean Mankin score ([3]; 0.3 mg/week intraarticular)	Cells (Mankin criteria), mean ([3]; 1.5 mg weekly intraarticular)	Safranin O (Mankin criteria), mean ([3]; 1.5 mg weekly intraarticular)	Structure (Mankin criteria), mean ([3]; 1.5 mg weekly intraarticular)	mean Mankin score ([3]; 1.5 mg/week intraarticular)	disease progression, result in words [3, 4]	structural and biochemical changes in developing osteoarthritis (loss of Safranin O staining), result in words [3, 4]	joint degeneration and cartilage degradation, result in words ([3]; animal model, weekly intraarticular)
NC1=N/C(=C2\CCNC(=O)c3[nH]ccc32)C(=O)N1 [E-debromohymenialdisine]	5.22	broad, shallow dose response curve	4.30	broad, shallow dose response curve											
O=C1NC(=O)/C(=C2/CCNC(=O)c3[nH]c(Br)cc32)N1 [Axinohydantoin (3), axinohydantoin]	< 4.30														
NC1=N/C(=C2/CCNC(=O)c3[nH]ccc32)C(=O)N1 [Z-debromohymenialdisine]	6.10	broad, shallow dose response curve	5.70	broad, shallow dose response curve	1.2	1.5	3.5	6.7	1.5	1.1	1.6	5.5	significant reduction in disease progression	able to diminish the structural and biochemical changes	effective in slowing joint degeneration and cartilage degradation
NC1=NC(=O)/C(=C2\CCNC(=O)c3[nH]c(Br)cc32)N1 [Hymenialdisine (2), hymenialdisine]	< 4.30														
